Laboratory results reported in ChEMBL document CHEMBL3885881, “DrugMatrix”.

Species: Rattus norvegicus
Experiment: DrugMatrix - Regimen: Daily Repeat
Format: toxicity, organism-based, Sprague-Dawley
Design: regimen Daily Repeat, gender Male, age 6-8 weeks
Settings: in vivo, po, route oral GAVAGE, vehicle .5 % CMC; for BASOPHIL / EOSINOPHIL / ERYTHROCYTE COUNT / HEMATOCRIT / HEMOGLOBIN / LEUKOCYTE COUNT / LYMPHOCYTE / MEAN CORPUSCULAR HEMOGLOBIN / MEAN CORPUSCULAR HEMOGLOBIN CONCENTRATION / MEAN CORPUSCULAR VOLUME / MONOCYTE / NEUTROPHIL / PLATELET COUNT: tissue Blood; for ALANINE AMINOTRANSFERASE / ALBUMIN / ALKALINE PHOSPHATASE / ASPARTATE AMINOTRANSFERASE / BLOOD UREA NITROGEN / CHLORIDE / CHOLESTEROL / CREATINE PHOSPHOKINASE / CREATININE / GLUCOSE / PHOSPHORUS / POTASSIUM / SODIUM / TOTAL BILIRUBIN / TOTAL PROTEIN: tissue Plasma
[1] = 69 mg/kg, 72 h, dose level High, time 3 day
[2] = 69 mg/kg, 120 h, dose level High, time 5 day
[3] = […], 72 h, dose 6.9 mg/Kg, dose level Low, time 3 day
[4] = […], 120 h, dose 6.9 mg/Kg, dose level Low, time 5 day

COc1ccc(Cc2nccc3cc(OC)c(OC)cc23)cc1OC [PAPAVERINE] was tested, and the BASOPHIL [1] was 0%, the EOSINOPHIL [1] was 0.33% and the “ERYTHROCYTE COUNT” value [1] was 6.13 x10E6/uL. The HEMATOCRIT [1] was 36.97%, the HEMOGLOBIN [1] was 14.43 G/DL and the “LEUKOCYTE COUNT” value [1] was 10.73 x10E3/uL. For the same molecule, the LYMPHOCYTE [1] was 85%, the “MEAN CORPUSCULAR HEMOGLOBIN” value [1] was 23.67 pg and the “MEAN CORPUSCULAR HEMOGLOBIN CONCENTRATION” value [1] was 39.07 G/DL. The “MEAN CORPUSCULAR VOLUME” value [1] was 60.5 fL, the MONOCYTE [1] was 1% and the NEUTROPHIL [1] was 13.67%. For the same molecule, the “PLATELET COUNT” value [1] was 1169 x10E3/uL, the “ALANINE AMINOTRANSFERASE” value [1] was 36.33 u/L and the ALBUMIN [1] was 3.83 G/DL. The “ALKALINE PHOSPHATASE” value [1] was 289.67 u/L, the “ASPARTATE AMINOTRANSFERASE” value [1] was 57.33 u/L and the “BLOOD UREA NITROGEN” value [1] was 13.67 mg/dL. For the same molecule, the CHLORIDE [1] was 107.67 MEQ/L, the CHOLESTEROL [1] was 66.33 mg/dL and the “CREATINE PHOSPHOKINASE” value [1] was 129.67 u/L. The CREATININE [1] was 0.5 mg/dL, the GLUCOSE [1] was 195.67 mg/dL and the PHOSPHORUS [1] was 11.97 mg/dL. For the same molecule, the POTASSIUM [1] was 6.9 MEQ/L, the SODIUM [1] was 152.33 MEQ/L and the “TOTAL BILIRUBIN” value [1] was 0.3 mg/dL. For the same molecule, the “TOTAL PROTEIN” value [1] was 6.13 G/DL, the BASOPHIL [2] was 0% and the EOSINOPHIL [2] was 0%. The “ERYTHROCYTE COUNT” value [2] was 5.8 x10E6/uL, the HEMATOCRIT [2] was 35.07% and the HEMOGLOBIN [2] was 14.43 G/DL. The “LEUKOCYTE COUNT” value [2] was 15.23 x10E3/uL, the LYMPHOCYTE [2] was 84.33% and the “MEAN CORPUSCULAR HEMOGLOBIN” value [2] was 24.97 pg. The “MEAN CORPUSCULAR HEMOGLOBIN CONCENTRATION” value [2] was 41.27 G/DL, the “MEAN CORPUSCULAR VOLUME” value [2] was 60.43 fL and the MONOCYTE [2] was 3.67%. The NEUTROPHIL [2] was 12%, the “PLATELET COUNT” value [2] was 973 x10E3/uL and the “ALANINE AMINOTRANSFERASE” value [2] was 34 u/L. The ALBUMIN [2] was 3.67 G/DL, the “ALKALINE PHOSPHATASE” value [2] was 334 u/L and the “ASPARTATE AMINOTRANSFERASE” value [2] was 56.33 u/L. For the same molecule, the “BLOOD UREA NITROGEN” value [2] was 12.33 mg/dL, the CHLORIDE [2] was 105.33 MEQ/L and the CHOLESTEROL [2] was 57.67 mg/dL. The “CREATINE PHOSPHOKINASE” value [2] was 142.67 u/L, the CREATININE [2] was 0.57 mg/dL and the GLUCOSE [2] was 174.33 mg/dL. It also gave a PHOSPHORUS [2] of 11.33 mg/dL, a POTASSIUM [2] of 7 MEQ/L and an SODIUM [2] of 149.67 MEQ/L. The “TOTAL BILIRUBIN” value [2] was 0.43 mg/dL, the “TOTAL PROTEIN” value [2] was 5.8 G/DL and the BASOPHIL [3] was 0%. For the same molecule, the EOSINOPHIL [3] was 0.33%, the “ERYTHROCYTE COUNT” value [3] was 5.94 x10E6/uL and the HEMATOCRIT [3] was 35.17%. The HEMOGLOBIN [3] was 14.13 G/DL, the “LEUKOCYTE COUNT” value [3] was 12.43 x10E3/uL and the LYMPHOCYTE [3] was 87.33%. The “MEAN CORPUSCULAR HEMOGLOBIN” value [3] was 23.8 pg, the “MEAN CORPUSCULAR HEMOGLOBIN CONCENTRATION” value [3] was 40.2 G/DL and the “MEAN CORPUSCULAR VOLUME” value [3] was 59.13 fL. For the same molecule, the MONOCYTE [3] was 2.33%, the NEUTROPHIL [3] was 10% and the “PLATELET COUNT” value [3] was 1083 x10E3/uL. The “ALANINE AMINOTRANSFERASE” value [3] was 43.67 u/L, the ALBUMIN [3] was 3.7 G/DL and the “ALKALINE PHOSPHATASE” value [3] was 347.67 u/L. For the same molecule, the “ASPARTATE AMINOTRANSFERASE” value [3] was 64.67 u/L, the “BLOOD UREA NITROGEN” value [3] was 11.67 mg/dL and the CHLORIDE [3] was 107 MEQ/L. The CHOLESTEROL [3] was 64.33 mg/dL, the “CREATINE PHOSPHOKINASE” value [3] was 170 u/L and the CREATININE [3] was 0.5 mg/dL. The GLUCOSE [3] was 172 mg/dL, the PHOSPHORUS [3] was 11.1 mg/dL and the POTASSIUM [3] was 6.23 MEQ/L. The SODIUM [3] was 149 MEQ/L, the “TOTAL BILIRUBIN” value [3] was 0.37 mg/dL and the “TOTAL PROTEIN” value [3] was 5.77 G/DL. The BASOPHIL [4] was 0%, the EOSINOPHIL [4] was 0.33% and the “ERYTHROCYTE COUNT” value [4] was 6.2 x10E6/uL. For the same molecule, the HEMATOCRIT [4] was 37.4%, the HEMOGLOBIN [4] was 15.4 G/DL and the “LEUKOCYTE COUNT” value [4] was 12.83 x10E3/uL. For the same molecule, the LYMPHOCYTE [4] was 87.33%, the “MEAN CORPUSCULAR HEMOGLOBIN” value [4] was 24.87 pg and the “MEAN CORPUSCULAR HEMOGLOBIN CONCENTRATION” value [4] was 41.17 G/DL. For the same molecule, the “MEAN CORPUSCULAR VOLUME” value [4] was 60.33 fL, the MONOCYTE [4] was 1.33% and the NEUTROPHIL [4] was 11%. The “PLATELET COUNT” value [4] was 1006 x10E3/uL, the “ALANINE AMINOTRANSFERASE” value [4] was 35 u/L and the ALBUMIN [4] was 3.73 G/DL. For the same molecule, the “ALKALINE PHOSPHATASE” value [4] was 374.33 u/L, the “ASPARTATE AMINOTRANSFERASE” value [4] was 60.33 u/L and the “BLOOD UREA NITROGEN” value [4] was 12.33 mg/dL. The CHLORIDE [4] was 108.33 MEQ/L, the CHOLESTEROL [4] was 61.33 mg/dL and the “CREATINE PHOSPHOKINASE” value [4] was 131.67 u/L. The CREATININE [4] was 0.6 mg/dL, the GLUCOSE [4] was 168.67 mg/dL and the PHOSPHORUS [4] was 10.03 mg/dL. For the same molecule, the POTASSIUM [4] was 6.13 MEQ/L, the SODIUM [4] was 153.67 MEQ/L and the “TOTAL BILIRUBIN” value [4] was 0.33 mg/dL. The “TOTAL PROTEIN” value [4] was 5.97 G/DL.
